Measured values from publication PMC3394890 (Therapeutic Drug Monitoring, 2012).
Like-named read-outs stand apart in the source and are kept apart here. Bridge positions count the residues as written; N and C are the ends. Square brackets hold non-standard residues; d marks the D form. Peptide text beside a SMILES is read from it. * marks the point of attachment. Heptanoyl(6-Me) = CC(C)CCCCC(=O)*; X1 = CC[C@H](C)CCCCC(=O)*; Dab = NCC[C@H](N)C(=O)O

Key:
[1] = assay type: in vitro ADME; conditions: human EDTA plasma QC samples
[2] = human, in vivo
[3] = Polymyxin B1 and B2 plasma levels in further patient samples; conditions: human, in vivo, iv

Row | half-life ([2]; female, iv) [h] | Ratio of polymyxin B2 to polymyxin B1+polymyxin B2 in plasma, mean [2] | Ratio of polymyxin B2 to polymyxin B1+polymyxin B2 in plasma, range [2] | Plasma concentration of the patient sample of Figure 1E/F [3] [ng/mL] | SMILES | Stability during repetitive freeze-thaw cycles [1] | Time stable at 4°C ([1]; 4°C) | Time stable at room temperature ([1]; 22°C) | Time stable at −80°C ([1]; −80°C) | Cmax ([2]; female, iv, 1.5 mg/kg) [ng/mL] | half-life ([2]; female, iv, 1.5 mg/kg) [h] | level at 0 h ([2]; female, iv, 1.5 mg/kg) [ng/mL] | level at 12 h ([2]; female, iv, 1.5 mg/kg) [ng/mL]
1 | – | – | – | – | CC[C@H](C)CCCCC(=O)N[C@@H](CCN)C(=O)N[C@H](C(=O)N[C@@H](CCN)C(=O)N[C@H]1CCNC(=O)[C@H]([C@@H](C)O)NC(=O)[C@H](CCN)NC(=O)[C@H](CCN)NC(=O)[C@H](CC(C)C)NC(=O)[C@@H](Cc2ccccc2)NC(=O)[C@H](CCN)NC1=O)[C@@H](C)O [polymyxin B1] (X1-[Dab]T[Dab][Dab][Dab][dF]L[Dab][Dab]T; lactam 4-C) | at least three repetitive freeze-thaw cycles | at least 72 h | at least 24 h | at least 3 months | 4830 | 4.7 | 1400 | 1080
2 | 5.4 | 0.15 | 0.13-0.16 | 322 | CC(C)CCCCC(=O)N[C@@H](CCN)C(=O)N[C@H](C(=O)N[C@@H](CCN)C(=O)N[C@H]1CCNC(=O)[C@H]([C@@H](C)O)NC(=O)[C@H](CCN)NC(=O)[C@H](CCN)NC(=O)[C@H](CC(C)C)NC(=O)[C@@H](Cc2ccccc2)NC(=O)[C@H](CCN)NC1=O)[C@@H](C)O [polymyxin B2] ({Heptanoyl(6-Me)}-[Dab]T[Dab][Dab][Dab][dF]L[Dab][Dab]T; lactam 4-C) | – | – | – | – | – | – | 252 | 214
